Results on 11 compounds are retold here after ChEMBL document CHEMBL1201862, “PubChem BioAssay data set” (2004).

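In this assay, cells in 96-well plates receive the compound at five concentrations for 48 hours. Endpoints are linearly interpolated between the surrounding concentrations. GI50 marks 50% less growth.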 Active and inactive are the calls of the source. Rule as the data show it: active = GI50 up to about 1.1 µM and inactive = higher.

Among the test systems are SK-MEL-2; SK-MEL-28; Malme-3M; A549; OVCAR-3; SK-MEL-5; ACHN; HOP-92; CCRF-CEM; LOX IMVI; SK-OV-3; M14; SF-268; DU-145; CAKI-1; A498; UO-31; SR; HOP-62; MDA-N.
Common to all, as to test: NCI tumour cell line growth inhibition, 48 h

As for `O=C1CCCC/C1=C/C=C/c1ccccc1`, the GI50 is > 100 µM (inactive) in the assay with SK-MEL-2; > 100 µM (inactive) in the assay with SK-MEL-28; 87.9 µM (inactive) in the assay on Malme-3M; 52.5 µM (inactive) with A549; 66.4 µM (inactive) with OVCAR-3; 41.2 µM (inactive) in the assay with SK-MEL-5. For the same compound, the GI50 with ACHN was 71.4 µM (inactive); with HOP-92, 58.5 µM (inactive); with CCRF-CEM, 34.6 µM (inactive); in the assay on LOX IMVI, 48.9 µM (inactive); with SK-OV-3 it was 55.7 µM (inactive); in the assay with M14, 58.9 µM (inactive). Moreover, the GI50 is 59.7 µM (inactive) in the assay with SF-268; 64.6 µM (inactive) in the assay on DU-145; > 100 µM (inactive) with CAKI-1; > 100 µM (inactive) with A498; 44.4 µM (inactive) in the assay on UO-31.
For `Nc1nc(NC2C=C(CO)C(O)C2O)c([N+](=O)[O-])c(=O)[nH]1` (stereo not drawn), the GI50 in the assay with SK-MEL-2, in the assay with SK-MEL-28, in the assay on Malme-3M, in the assay on A549, with OVCAR-3 and with SK-MEL-5 was > 100 µM (inactive) throughout. The GI50 with ACHN, in the assay with HOP-92, in the assay with CCRF-CEM, in the assay with LOX IMVI, with SK-OV-3 and in the assay on SR was > 100 µM (inactive) in each case. Besides, the GI50 in the assay with M14, in the assay on SF-268, in the assay with CAKI-1, in the assay on A498, in the assay on HOP-62 and with UO-31 was > 100 µM (inactive) in each case.
In the case of `NS(=O)(=O)c1nn2c(Br)c(-c3ccccc3)nc2s1`, the GI50 with SK-MEL-2 is 4.52 µM (inactive); with SK-MEL-28, 9.06 µM (inactive); in the assay on Malme-3M it was 3.96 µM (inactive); in the assay on A549 it was 6.44 µM (inactive); with OVCAR-3 it was 4.49 µM (inactive); in the assay on SK-MEL-5, 2.42 µM (inactive). In addition, the GI50 is 4.45 µM (inactive) with ACHN; 8.77 µM (inactive) in the assay on HOP-92; 2.65 µM (inactive) with CCRF-CEM; 1.95 µM (inactive) with LOX IMVI; 14.7 µM (inactive) in the assay with SK-OV-3; 1.88 µM (inactive) with SR. In addition, the GI50 is 3.31 µM (inactive) in the assay with M14; 8.38 µM (inactive) in the assay with SF-268; 3.08 µM (inactive) with DU-145; 3.03 µM (inactive) in the assay with CAKI-1; 17 µM (inactive) in the assay on A498; 14.9 µM (inactive) in the assay with HOP-62. In the assay with UO-31, the GI50 is 4.02 µM (inactive).
`COc1cc(C=O)c(-c2cc(OC)c(OC)cc2C=O)cc1OC`: the GI50 in the assay on SK-MEL-2 is 67 µM (inactive); with SK-MEL-28 it was 47.8 µM (inactive); with Malme-3M, > 100 µM (inactive); with A549, > 100 µM (inactive); in the assay with OVCAR-3, > 100 µM (inactive); in the assay with SK-MEL-5 it was 76.6 µM (inactive). Besides, the GI50 in the assay on ACHN was > 100 µM (inactive); with HOP-92 it was > 100 µM (inactive); in the assay with CCRF-CEM, 30.1 µM (inactive); with LOX IMVI, 13.7 µM (inactive); in the assay on SK-OV-3, > 100 µM (inactive); in the assay on SR it was 24.3 µM (inactive). Moreover, the GI50 was > 100 µM (inactive) with M14; 46.7 µM (inactive) in the assay on SF-268; > 100 µM (inactive) in the assay on CAKI-1; > 100 µM (inactive) in the assay on A498; > 100 µM (inactive) in the assay on HOP-62; 64.6 µM (inactive) in the assay on UO-31.
On to `COc1cc(CNC2c3cc4c(cc3C(c3cc(OC)c(OC)c(OC)c3)[C@H]3C(=O)OCC23)OCO4)cc(OC)c1OC` (stereo partly drawn), for which the GI50 is 0.426 µM (active) with SK-MEL-2; > 100 µM (inactive) in the assay with Malme-3M; 0.417 µM (active) in the assay on A549; 0.627 µM (active) with OVCAR-3; 0.216 µM (active) in the assay on SK-MEL-5; 0.42 µM (active) in the assay with ACHN. Besides, the GI50 was 0.528 µM (active) with HOP-92; 0.35 µM (active) with CCRF-CEM; 0.288 µM (active) with LOX IMVI; 0.385 µM (active) with SK-OV-3; 0.314 µM (active) in the assay on SR; 0.447 µM (active) in the assay with M14. In addition, the GI50 is 0.372 µM (active) with SF-268, 0.254 µM (active) in the assay with A498, 0.231 µM (active) with HOP-62 and 0.792 µM (active) in the assay on UO-31.
For `COc1ccc(/C=C/c2nnc(S)[nH]2)cc1`, the GI50 with SK-MEL-2, in the assay on SK-MEL-28, in the assay with Malme-3M, with A549, with OVCAR-3 and in the assay with SK-MEL-5 was > 100 µM (inactive) throughout. The GI50 in the assay with ACHN, in the assay with HOP-92, in the assay with CCRF-CEM, in the assay on LOX IMVI, with SR and in the assay with M14 was > 100 µM (inactive) throughout. The GI50 in the assay on SF-268, in the assay on CAKI-1, in the assay with A498 and with UO-31 was > 100 µM (inactive) throughout.
Consider `CC1CCN(C(C)C)P(=S)(Cc2ccccc2)O1` (stereo not drawn), for which the GI50 in the assay with SK-MEL-2 was 44.3 µM (inactive); with SK-MEL-28, 13.6 µM (inactive); with Malme-3M it was > 100 µM (inactive); in the assay on A549, > 100 µM (inactive); in the assay with OVCAR-3, 34.4 µM (inactive); with SK-MEL-5, > 100 µM (inactive). Besides, the GI50 in the assay on ACHN, in the assay with LOX IMVI, in the assay with SK-OV-3, with SR, in the assay on M14 and in the assay on SF-268 was > 100 µM (inactive) each time. Also, the GI50 in the assay on DU-145, in the assay on CAKI-1, in the assay with HOP-62 and in the assay on UO-31 was > 100 µM (inactive) in each case.
`O=c1c2ccccc2[nH]c2ccc3c(Cl)n[nH]c3c12`: the GI50 was 30.7 µM (inactive) in the assay on SK-MEL-2; 87.5 µM (inactive) with SK-MEL-28; 19.1 µM (inactive) with Malme-3M; 15.9 µM (inactive) in the assay with A549; 57.4 µM (inactive) in the assay with OVCAR-3; 40.9 µM (inactive) in the assay on SK-MEL-5. Besides, the GI50 is 27.8 µM (inactive) with ACHN; 38.5 µM (inactive) in the assay on HOP-92; 56.9 µM (inactive) with CCRF-CEM; 20.8 µM (inactive) with LOX IMVI; > 100 µM (inactive) with SK-OV-3; 36.1 µM (inactive) in the assay with SR. The GI50 is 60.1 µM (inactive) in the assay with M14; 50.5 µM (inactive) in the assay with SF-268; 23.7 µM (inactive) in the assay on CAKI-1; 30.9 µM (inactive) with A498; 29.1 µM (inactive) in the assay with HOP-62; 26.7 µM (inactive) in the assay with UO-31.
Take `C[C@]12CC[C@H]3[C@@H](CC=C4C[C@@H](N5CCCC5)CC[C@@]43C)[C@@H]1C/C(=C\c1ccc([N+](=O)[O-])cc1)[C@@H]2O`: the GI50 in the assay with SK-MEL-2 is > 10 µM (inactive); in the assay with SK-MEL-28, 14.1 µM (inactive); in the assay on Malme-3M, 16.5 µM (inactive); in the assay with A549, 17.1 µM (inactive); in the assay on OVCAR-3 it was 17 µM (inactive); in the assay with SK-MEL-5 it was 15 µM (inactive). For the same compound, the GI50 with ACHN is 15.9 µM (inactive); with HOP-92, 13 µM (inactive); in the assay on CCRF-CEM, 3.21 µM (inactive); with LOX IMVI, 16.4 µM (inactive); in the assay with SK-OV-3 it was 15.9 µM (inactive); with SR it was 1.88 µM (inactive). Further, the GI50 is 16.6 µM (inactive) in the assay on M14; 17.5 µM (inactive) in the assay with SF-268; 17.3 µM (inactive) with DU-145; 13.3 µM (inactive) in the assay with CAKI-1; 15.3 µM (inactive) in the assay with A498; 17.9 µM (inactive) with HOP-62. Also, the GI50 with UO-31 was 15.1 µM (inactive).
In the case of `Cc1cc2[nH]c3c(C#N)c(-c4ccccc4)c(/C=N/c4ccc(F)cc4)c(=O)n3c2cc1C`, the GI50 was > 100 µM (inactive) in the assay on SK-MEL-2; > 100 µM (inactive) in the assay with SK-MEL-28; 76 µM (inactive) in the assay on Malme-3M; 49 µM (inactive) in the assay with A549; 39.4 µM (inactive) in the assay with OVCAR-3; > 100 µM (inactive) with SK-MEL-5. For the same compound, the GI50 in the assay on ACHN was > 100 µM (inactive); in the assay with CCRF-CEM, > 100 µM (inactive); in the assay on LOX IMVI it was > 100 µM (inactive); in the assay on SK-OV-3, > 100 µM (inactive); in the assay with M14 it was > 100 µM (inactive); with SF-268, 99.5 µM (inactive). Moreover, the GI50 in the assay with MDA-N was 59.7 µM (inactive); in the assay on CAKI-1, > 100 µM (inactive); in the assay with A498 it was > 100 µM (inactive); with HOP-62, > 100 µM (inactive); in the assay with UO-31 it was > 100 µM (inactive).
On to `COC(=O)/C=C1\C(=O)Nc2ccc(Br)cc21`, for which the GI50 is 0.493 µM (active) in the assay on SK-MEL-2; 2.68 µM (inactive) in the assay on SK-MEL-28; 2.33 µM (inactive) with Malme-3M; 3.15 µM (inactive) in the assay with A549; 1.46 µM (inactive) in the assay on OVCAR-3; 1.6 µM (inactive) in the assay with SK-MEL-5. Also, the GI50 was 1.71 µM (inactive) in the assay with ACHN; 1.88 µM (inactive) in the assay on HOP-92; 0.296 µM (active) in the assay with CCRF-CEM; 0.804 µM (active) in the assay on LOX IMVI; 3.53 µM (inactive) in the assay on SK-OV-3; 0.925 µM (active) in the assay with SR. Besides, the GI50 is 2.24 µM (inactive) with M14; 3.49 µM (inactive) with SF-268; 1.86 µM (inactive) in the assay with DU-145; 1.04 µM (active) in the assay with CAKI-1; 5.22 µM (inactive) in the assay on A498; 2.06 µM (inactive) in the assay on HOP-62. The GI50 in the assay on UO-31 is 2.19 µM (inactive).
